Data taken from patent publication US20140296337A1, “CNS MODULATORS” (BTG International Limited, priority 2004, published 2014).

Tests used:
[1] = tested on: electrical power of four rat brain areas (frontal cortex, hippocampus, striatum, reticular formation); assay: Tele-Stereo-EEG: continuous recording of intracerebral field potentials in the freely moving rat; assay type: in vivo
Excerpt: Analysis of brain field potentials (“Tele-Stereo-EEG”) has been proven to be a very sensitive tool for the characterization of drug effects on the central nervous system (Dimpfel et al., 1986). After administration of a centrally active drug, quantitative changes in the brain field potentials can be considered as a characteristic fingerprint of that particular drug. “Fingerprints” of more than 100 compounds have been obtained including 8 established drug categories, e.g. analgesics, antidepressants, neuroleptics, stimulants, tranquilizers, sedatives and narcotics. Different dosages of the same drug cause quantitative changes in electrical power. […] Direct comparison with specific reference drugs, or by discriminant analysis with reference to an extensive fingerprint database, permits the detection of any possible similarities with established drugs. In general, “fingerprints” show prominent differences for drugs prescribed for different indications and are similar for drugs with similar indication (Dimpfel 2003). Furthermore, the pattern of EEG changes in the rat is a useful tool in predicting possible changes in the EEG power spectrum in humans.
Five intraperitoneal doses (30 mg/kg, 100 mg/kg, 300 mg/kg, 600 mg/kg and 1000 mg/kg body weight) of sodium (R)-3-hydroxybutyrate (BHB) were investigated using the “Tele-Stereo-EEG” animal model consisting of continuous recording of intracerebral field potentials in the freely moving rat. No effects could be measured using 1 ml/kg of a solution containing 20 mM of Na-bicarbonate (pH 8.4 or pH 12.5) for control purposes. […] Most marked changes were observed within the alpha2 range.
Adult Fisher rats (4-6 month of age and day—night converted, weight about 400 g) were implanted with 4 bipolar concentric steel electrodes using a stereotactic surgical procedure (Paxinos and Watson, 1982). All four electrodes were placed 3 mm lateral within the left hemisphere. Anterior coordinates were 12.2, 5.7, 9.7 and 3.7 mm for frontal cortex, hippocampus, striatum and reticular formation, respectively. A baseplate carrying the electrodes and a 5-pin-plug was fixed to the skull by dental cement attached to 3 steel screws fixed into the skull. Animals were given two weeks for recovery from the surgical procedure. Experiments were performed in compliance with the German Health Authority Guidelines and with local authority approval. EEG signals were recorded from frontal cortex, hippocampus, striatum and reticular formation and were amplified and processed as described previously (see Dimpfel et al., 1986). After automatic artefact rejection, signals were collected in sweeps of 4 s duration and submitted to Fast Fourier transformation. The resulting electrical power spectra were divided into 6 frequency ranges: delta (0.8-4.5 Hz); theta (4.75-6.75 Hz); alpha1 (7.00-9.50 Hz); alpha2 (9.75-12.50 Hz); beta (12.75-18.50 Hz); beta2 (18.75-35.00 Hz). […] In an off-line procedure spectra were averaged to give 15 minute or longer periods for further statistical analysis.
Five dosages of BHB (30, 100, 300, 600 and 1000 mg/kg body weight) (supplied by Solvias AG, CH 4002 Basel, Switzerland, batch No: SO-1058.047.1.120) and a vehicle control (0.9% w/v saline) were administered intraperitoneously to a group of 12 animals using a crossover design with at least 3 drug holidays in between the applications. Additional controls consisted of a 1 ml/kg of a solution containing 20 mM of Na-bicarbonate (adjusted to 8.4 and pH 12.5 obtained by titration with 1N NaOH) were tested to ascertain possible effects due to the alkaline pH of the BHB solution. After a pre-drug period of 45 minutes for baseline recording, drug effects were observed continuously for 300 minutes. Changes of electrical power (μV2W) are expressed as % of the 45 min. pre-drug values. Multivariate statistics were calculated according to Ahrens and Lauter (1974).

[2] = tested on: EEG frequency bands (delta, theta activity); details: cited from earlier work
[3] = BHB 100 mg/kg i.p. single dose, rat
[4] = BHB 300 mg/kg i.p. single dose, rat

## C[C@@H](O)CC(=O)[O-].[Na+] [BHB, sodium (R)-3-hydroxybutyrate]
[1]; 6 frequency ranges, 4 brain areas, one time period
  discriminant analysis of EEG fingerprint (24 variables): close proximity to paroxetine and tramadol
[1]; BHB 30 mg/kg body weight i.p. single dose, rat
  effects on EEG frequencies relative to the saline control: no statistically significant effects
[1]; [3]
  duration of EEG effects: 1 to 2 h
  statistical significance of EEG changes: not statistically significant
[1]; BHB 100 mg/kg i.p. single dose, rat, all regions, mainly alpha2, less delta
  EEG frequency changes (electrical power, % of pre-drug values): decrease of electrical power
[1]; [4]
  EEG frequency changes (electrical power, % of pre-drug values): decreases in alpha2 power throughout all brain regions
  duration of pattern of EEG changes: two
[1]; BHB 300 mg/kg i.p. single dose, rat, by brain region
  statistical significance of EEG changes: statistically significant for the frontal cortex, hippocampus and reticular formation, but not for the striatum
[1]; BHB 600 mg/kg i.p. single dose, rat, generally, except reticular formation
  duration of EEG effects: 2 h
[1]; BHB 600 mg/kg i.p. single dose, rat, including first hour within striatum
  statistical significance of EEG changes: statistically highly significant
[1]; BHB 600 mg/kg i.p. single dose, rat
  duration of decreases of power in the reticular formation: persisted throughout the third hour
[1]; BHB 1000 mg/kg i.p. single dose, rat
  EEG frequency changes (electrical power, % of pre-drug values): more prominent decreases of power lasting into the third hour
[1]; BHB 1000 mg/kg i.p. single dose, rat, even 5th hour within reticular formation
  statistical significance of EEG changes: statistically highly significant
[1]; BHB 1000 mg/kg i.p. single dose, rat, total experimental time
  duration of decreases of power in the reticular formation: 5 h
[1]; BHB at a lower dosage, vs galanthamine 3 mg/kg and paroxetine 2 mg/kg
  similarity of EEG electrical fingerprint to reference drugs: similarity to the “electrical fingerprints” of the acetylcholine esterase inhibitor galanthamine and also the antidepressant paroxetine
[1]; BHB dose levels of 300-1000 mg/kg i.p., rat
  statistical significance of EEG changes: statistically highly significant
[1]; higher dosages of BHB, vs tramadol 10 mg/kg
  similarity of EEG profile to reference drugs: reminiscent of the effects as observed after the administration of tramadol

## Clc1cccc(Cl)c1N=C1NCCN1 [clonidine]
[2]; drug down regulating the norepinephrine system (presynaptic adrenergic alpha2 receptor)
  change of theta activity: increases

## CN1[C@@H]2C[C@@H](OC(=O)[C@H](CO)c3ccccc3)C[C@H]1[C@@H]1O[C@@H]12 [scopolamine]
[2]; drugs affecting the cholinergic system
  change of delta activity: increase of power
